{"source": "patent US20100221304A1", "about": "“Bionanocomposite Materials and Methods For Producing and Using the Same” (The Regents of the University of Colorado, a body corporate, priority 2009, published 2010)", "key": {"smooth muscle cell (SMC)": {"system": "smooth muscle cell (SMC)", "experiment": "SMC contraction and invasion in genipin-crosslinked collagen-chitosan-elastin (CCE) gel constructs", "type": "cell-based", "source_text": "The vascular media, a layer of the blood vessel wall containing smooth muscle cell (SMC), is often the target functional tissue in the construction of biomimetic vascular grafts. It has a major contribution to mechanical properties and biological functions of vessels including contraction and healing. The present inventors have studied the effects of crosslinking and biomolecule conditions in the development of mechanically strong and stable, biologically functional constructs for vascular media equivalents. To this end, genipin was used to crosslink collagen-chitosan-elastin (CCE) constructs, and the effects of genipin concentration on the mechanical properties and SMC activity of CCE gel constructs were examined.\nTo enhance biological activities of cells on the genipin-treated CCE constructs, soluble molecule factors were incorporated with structural constructs and their effects on SMC activities were evaluated. These conditions include heparin, platelet-derived […] growth factor (PDGF), high-concentrated fetal bovine serum (h-FBS), mixture of heparin and PDGF and mixture of h-FBS and PDGF. […] The ingrowth of SMC in the vascular media equivalent also promoted wound healing process of the construct scaffold by showing the closure of the puncture hole (FIG. 14)."}, "SMC": {"system": "SMC", "experiment": "SMC migration, in-growth and contraction in collagen-chitosan scaffolds", "type": "cell-based", "source_text": "In addition, collagen-chitosan scaffolds have been developed as a structural support for the formation of a vascular media equivalent. In particular, the effects of cross-linking and PDGF-BB (with or without heparin or serum) on biomechanical properties, SMC migration, SMC contraction, and wound healing have been evaluated (FIG. 12). […] For example, it enhanced the strength and modulus while inhibited SMC in-growth and contraction. With a low cross-linking condition, the molecule effects of PDGF-BB, a SMC attractant, were studied with or without serum or heparin."}}}
{"molecule": "COC(=O)C1=CO[C@@H](O)[C@@H]2C(CO)=CC[C@H]12", "note": "[genipin]", "values": [{"measurement": "SMC contraction or invasion in the gels", "setting": "smooth muscle cell (SMC); genipin at a concentration of 5 mM or above", "value": "No SMC contraction or invasion was observed"}, {"measurement": "SMC contraction and invasion in the CCE gels", "setting": "smooth muscle cell (SMC); genipin crosslinking", "value": "significantly inhibited"}, {"measurement": "SMC in-growth and contraction", "setting": "SMC; collagen-chitosan scaffolds cross-linked using genipin", "value": "inhibited"}]}
{"molecule": "heparin", "values": [{"measurement": "PDGF-induced SMC invasion into the crosslinked constructs", "setting": "smooth muscle cell (SMC)", "value": "inhibitory effects"}, {"measurement": "PDGF-induced cell migration and contraction", "setting": "SMC; low cross-linking condition, PDGF-BB with or without serum or heparin", "value": "inhibited"}]}
